Laboratory results: patent publication US20180201654A1, “PEPTIDE INHIBITORS OF HAUSP DEUBIQUITINASE” (priority 2012, published 2018)
Read-outs that look alike come from different tables or passages of the source.

Assays:
[1] = biological target: T1, HAUSP TRAF domain HAUSP^62-205 (Homo sapiens, UniProt Q93009); format: binding; parameters: All residues of HAUSP^62-205, with the exception of Asp^62, are included in the final model; hexahistidine tag (TEV-cleavable) (cleaved yes); made in house; host or cells: E. coli BL21 (DE3) RIPL; details: for n: ITC binding stoichiometry, 150 mM NaCl, 10 mM HEPES (pH 7.0)
T1 sequence (Q93009 62-205): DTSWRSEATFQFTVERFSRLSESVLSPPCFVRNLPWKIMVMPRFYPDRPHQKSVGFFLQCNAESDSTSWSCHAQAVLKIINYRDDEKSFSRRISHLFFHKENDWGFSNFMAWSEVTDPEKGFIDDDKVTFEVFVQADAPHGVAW
Experimental: FIG. 5. Typical isothermal titration calorimetric measurements of the interactions between the HAUSP TRAF domain and the vIRF4 protein derivatives or other peptides. Purified proteins and synthesized peptides were reconstituted in 150 mM NaCl and 10 mM HEPES (pH 7.0). The calorimetric assays were performed using a VPITC system. All experiments were carried out with a stirring speed of 300 rpm at 20° C., and the thermal power was recorded every 10 s. Data were analyzed using the ORIGIN software package (version 7.0). […] Each titration against the HAUSP TRAF domain is indicated in each panel.
(§1) Purified proteins and synthesized peptides (Peptron Inc., Deajeon, Korea) were reconstituted in 150 mM NaCl and 10 mM HEPES (pH 7.0). The calorimetric assays were performed using a VP-ITC system (MicroCal Inc., Northampton, Mass.). Samples were degassed by vacuum aspiration for 15 min prior to loading. All experiments were carried out with a stirring speed of 300 rpm at 20° C., and the thermal power was recorded every 10 s. Data were analyzed using the ORIGIN software package (version 7.0) supplied with the instrument. […] (SEQ ID NO: 6); EBNA1^435-449, […] (SEQ ID NO: 7); MDM2^137-152, […] […] (SEQ ID NO: 10). Each set of ITC experiments was repeated two or three times.

[2] = tested on: PEL cells carrying p53 (wt); assay: Apoptosis assay (Annexin V/PI, flow cytometry) in PEL cells; format: cell-based, human; details: 10 μM
Experimental: (§2) FIG. 3a-3g. […] Data are culled from 3 independent experiments.
The proportion of cells at the S phase was determined by measuring incorporation of BrdU and 7-amino-actionomycin D (ADD) into DNA. Cells were grown at a density of 5×10^6 cells/ml indicated periods with the treatment of either peptide or Nutlin-3a. The cells were pulse-labeled with 10 μM BrdU for 30 min. Cells were permeabilized, fixed and BrdU-, 7AAD-stained using the BrdU Flow Kit (BD Pharmingen) according to manufacturer's instructions. Stained cells were analyzed by flow cytometry to determine the cell-cycle distribution on a FACS Scan (BD FACSCanto™ II). Apoptosis was measured by dual-labeling with the Annexin V-FITC Apoptosis Detection kit I (BD biosciences-Pharmingen) according to the manufacturer's instruction and analyzed by Flow Jo software.
Shown is one representative experiment of three. It was shown that vif1/2 peptides cause cell death by apoptosis.
In this respect, BCBL-1 cells were treated with 100 μM of either vif1 or vif2 peptide for the indicated time periods and then subjected to Annexin V and PI staining, followed by FACS analysis. 10 μM Nutlin-3a was used as a positive control.

[3] = tested on: primary TKI-resistant Ph^+ and normal ALL cells; assay: Long-term cell culture of TKI-resistant ALL cells; format: cell-based, human; details: single agent, FIG. 15
From the text: To test whether vif1 and vif2 peptides have killing effect on relapse leukemia, this example chose two different karyotype relapse ALL cells: Ph^+BCR-ABL^T3151 and normal. The T3151 mutation is one of the common mechanism of escape and resistance against all kinds of tyrosine kinase inhibitors (TKIs). After treatment of these peptides into several different relapse ALL cells, this example performed Trypan blue staining to select dead cells in time dependent manner. […] This example next validated the effect of nilotinib/TAT-vif1 (or TAT-vif2) combination on primary TKI-resistance in Ph^+ and normal ALL during long-term cell culture.

[4] = biological target: T2, HAUSP TRAF domain (Homo sapiens, UniProt Q93009); format: binding
T2 construct: All residues of HAUSP^62-205, with the exception of Asp^62, are included in the final model; hexahistidine tag (TEV-cleavable) (cleaved yes); made in house; host or cells: E. coli BL21 (DE3) RIPL
T2 sequence (Q93009 62-205): as above
Experimental: FIG. 9. Typical isothermal titration calorimetric measurements of the competitive binding of vIRF4 with TRAF domain against cellular substrates. […] Each competitive titration is indicated in the panel.
as §1
To further gauge the competitive nature of vIRF4 binding, the TRAF domain was incubated with an equal molar amount of vIRF4^153-216 in the presence of a 5-fold molar excess of MDM2^137-152, and the mixture was then analyzed by size exclusion chromatography.

[5] = biological target: T3, USP8 (Homo sapiens, UniProt P40818); assay: In vitro deubiquitination assay with purified USP8; format: biochemical; details: 0.25 μM purified USP8 pre-mixed with peptide for 5 min; K48- or K63-linked chains
T3 sequence (P40818 1-1118): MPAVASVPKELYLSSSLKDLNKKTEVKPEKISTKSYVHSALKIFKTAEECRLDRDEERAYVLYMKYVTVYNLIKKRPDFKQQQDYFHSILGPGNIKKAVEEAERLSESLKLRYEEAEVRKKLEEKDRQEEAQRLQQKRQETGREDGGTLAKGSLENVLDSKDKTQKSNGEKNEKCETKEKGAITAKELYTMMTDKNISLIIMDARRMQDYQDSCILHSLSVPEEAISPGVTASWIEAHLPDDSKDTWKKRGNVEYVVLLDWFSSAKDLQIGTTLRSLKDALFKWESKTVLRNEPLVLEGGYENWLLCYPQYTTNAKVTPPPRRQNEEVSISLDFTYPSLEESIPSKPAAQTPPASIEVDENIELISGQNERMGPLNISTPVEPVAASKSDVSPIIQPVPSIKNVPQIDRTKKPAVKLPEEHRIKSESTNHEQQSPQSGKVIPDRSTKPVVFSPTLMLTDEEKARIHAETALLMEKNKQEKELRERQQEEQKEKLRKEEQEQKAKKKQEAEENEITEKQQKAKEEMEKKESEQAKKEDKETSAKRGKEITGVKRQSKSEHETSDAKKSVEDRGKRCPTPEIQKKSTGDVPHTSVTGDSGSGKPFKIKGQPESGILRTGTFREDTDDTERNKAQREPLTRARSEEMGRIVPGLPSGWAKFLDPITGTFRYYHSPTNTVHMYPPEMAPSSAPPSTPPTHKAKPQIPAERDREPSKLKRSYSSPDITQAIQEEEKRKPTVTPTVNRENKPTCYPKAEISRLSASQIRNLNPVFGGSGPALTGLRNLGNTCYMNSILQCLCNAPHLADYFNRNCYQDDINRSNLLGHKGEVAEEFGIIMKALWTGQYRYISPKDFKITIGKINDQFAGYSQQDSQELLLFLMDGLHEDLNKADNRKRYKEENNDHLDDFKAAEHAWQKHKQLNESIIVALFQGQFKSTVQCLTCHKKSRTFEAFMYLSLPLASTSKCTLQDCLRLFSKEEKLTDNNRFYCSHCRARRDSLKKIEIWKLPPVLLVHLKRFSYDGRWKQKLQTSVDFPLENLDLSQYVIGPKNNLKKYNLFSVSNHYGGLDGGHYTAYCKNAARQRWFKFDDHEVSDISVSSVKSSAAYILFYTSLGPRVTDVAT

[6] = biological target: T4, HAUSP (USP7) (Homo sapiens, UniProt Q93009); details: time-course, K48-Ub3-7 chains, 37° C.
T4 sequence (Q93009 whole entry, the tested form may be a part): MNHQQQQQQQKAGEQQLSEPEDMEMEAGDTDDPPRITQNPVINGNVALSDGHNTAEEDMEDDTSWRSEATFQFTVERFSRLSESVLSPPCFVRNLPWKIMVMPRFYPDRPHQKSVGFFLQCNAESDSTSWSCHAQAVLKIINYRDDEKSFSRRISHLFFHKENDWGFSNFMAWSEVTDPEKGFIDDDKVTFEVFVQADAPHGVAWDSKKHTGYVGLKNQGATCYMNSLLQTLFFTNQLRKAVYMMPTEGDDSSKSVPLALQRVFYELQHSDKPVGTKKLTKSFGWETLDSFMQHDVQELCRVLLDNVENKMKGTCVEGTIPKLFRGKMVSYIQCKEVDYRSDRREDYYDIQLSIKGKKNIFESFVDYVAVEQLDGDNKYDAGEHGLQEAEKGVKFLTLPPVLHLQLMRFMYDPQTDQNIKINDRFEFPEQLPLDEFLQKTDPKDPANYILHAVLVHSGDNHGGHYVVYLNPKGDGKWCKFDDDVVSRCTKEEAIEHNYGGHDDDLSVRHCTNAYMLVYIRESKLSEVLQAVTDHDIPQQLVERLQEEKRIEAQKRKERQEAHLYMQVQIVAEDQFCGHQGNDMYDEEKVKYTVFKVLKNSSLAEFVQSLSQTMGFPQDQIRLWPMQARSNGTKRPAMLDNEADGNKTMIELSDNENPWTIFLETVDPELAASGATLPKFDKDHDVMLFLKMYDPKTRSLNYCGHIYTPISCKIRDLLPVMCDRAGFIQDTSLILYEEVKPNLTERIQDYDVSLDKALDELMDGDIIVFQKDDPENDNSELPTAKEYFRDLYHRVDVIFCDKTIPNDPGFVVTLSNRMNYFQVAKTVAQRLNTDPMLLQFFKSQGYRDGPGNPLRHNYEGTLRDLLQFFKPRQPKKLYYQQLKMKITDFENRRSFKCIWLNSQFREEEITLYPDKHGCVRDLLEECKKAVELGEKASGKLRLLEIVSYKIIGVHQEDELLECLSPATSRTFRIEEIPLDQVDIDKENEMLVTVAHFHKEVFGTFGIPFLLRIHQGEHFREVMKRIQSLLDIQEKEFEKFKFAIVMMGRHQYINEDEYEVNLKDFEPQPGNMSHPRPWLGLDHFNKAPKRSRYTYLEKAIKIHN

[7] = biological target: T1, HAUSP TRAF domain HAUSP^62-205; assay: Size exclusion chromatography of complex formation in excess MDM2^137-152; format: binding; parameters: hexahistidine tag (TEV-cleavable) (cleaved yes); made in house; host or cells: E. coli BL21 (DE3) RIPL; details: in the presence of a 5-fold molar excess of MDM2^137-152
[8] = biological target: T4, HAUSP (USP7); assay: In vitro DUB assay with ubiquitinated MDM2 as substrate; details: HAUSP preincubated with increasing amounts of peptide; 1 h at 37° C.
[9] = tested on: p53, p21, MDM2 and HAUSP levels in PEL cells; assay: Western blot of p53 and its transcriptional targets in PEL cells; format: cell-based, human; details: peptide treatment
From the text: as §2

Compound: C[C@H](NC(=O)[C@@H]1CCCN1C(=O)CNC(=O)[C@H](CCC(N)=O)NC(=O)[C@@H](N)CCC(=O)O)C(=O)N[C@@H](CC(=O)O)C(=O)N[C@@H](CC(=O)O)C(=O)N1CCC[C@H]1C(=O)NCC(=O)N[C@@H](CCC(=O)O)C(=O)NCC(=O)N1CCC[C@H]1C(=O)N[C@@H](CO)C(=O)N[C@H](C(=O)NCC(=O)O)[C@@H](C)O [EBNA1^435-449, reference compound]
- n ([1]; 20° C.): 0.81 ± 0.01
- Ka ([1]; ITC, 20° C., pH 7.0): 2.10 ± 0.15 10^6 M^−1
- TΔS ([1]; ITC, 20° C., pH 7.0): -8.69 kcal/mol
- ΔG ([1]; ITC, 20° C., pH 7.0): -8.48 kcal/mol
- ΔH ([1]; ITC, 20° C., pH 7.0): -17.17 ± 0.13 kcal/mol

Compound: COc1ccc(C2=N[C@@H](c3ccc(Cl)cc3)[C@@H](c3ccc(Cl)cc3)N2C(=O)N2CCNC(=O)C2)c(OC(C)C)c1 [Nutlin-3a]
- cell death [2]: considerable cell death

Compound: Cc1cn(-c2cc(NC(=O)c3ccc(C)c(Nc4nccc(-c5cccnc5)n4)c3)cc(C(F)(F)F)c2)cn1 [nilotinib]
- response of refractory ALL cells in long-term culture [3]: did not achieve a therapeutic response

Compound: CC[C@H](C)[C@H](NC(=O)[C@H](Cc1c[nH]c2ccccc12)NC(=O)[C@@H](NC(=O)[C@@H](N)CO)C(C)C)C(=O)N1CCC[C@H]1C(=O)N[C@H](C(=O)N[C@@H](CC(N)=O)C(=O)N[C@@H](CCC(=O)O)C(=O)NCC(=O)N[C@@H](C)C(=O)N[C@@H](CO)C(=O)N[C@H](C(=O)N[C@@H](CO)C(=O)NCC(=O)N[C@@H](CCSC)C(=O)O)[C@@H](C)O)C(C)C [vIRF4^202-216]
- association constant (Kobs) ([4]; competitor titrated against MDM2^137-152-bound TRAF): 1.09e+07 M⁻¹
- association constant (Kobs) ([4]; competitor titrated against p53^350-364-bound TRAF): 4.42e+07 M⁻¹
- association constant (Kobs) ([4]; competitor titrated against p53^355-369-bound TRAF): 3.58e+07 M⁻¹
- Kobs ([4]; titrated to MDM2^137-152-TRAF): 10.875 ± 1.308 10^6 M^−1
- ΔHobs ([4]; titrated to MDM2^137-152-TRAF): -25.870 ± 0.240 kcal/mol
- Kobs ([4]; titrated to p53^350-364-TRAF): 44.200 ± 4.200 10^6 M^−1
- ΔHobs ([4]; titrated to p53^350-364-TRAF): -19.070 ± 0.194 kcal/mol
- Kobs ([4]; titrated to p53^355-369-TRAF): 35.800 ± 3.400 10^6 M^−1
- ΔHobs ([4]; titrated to p53^355-369-TRAF): -19.150 ± 0.203 kcal/mol
- USP8 DUB activity [5]: can not inhibit
- HAUSP DUB activity, comparative kinetic analysis [6]: weakly attenuated
- complex formation with the TRAF domain [7]: formed a stable complex
- HAUSP DUB activity against ubiquitinated MDM2 [8]: efficiently blocked
- HAUSP levels [9]: Neither vif1 nor vif2 peptide treatment altered
- tighter binding to the TRAF domain compared to the peptides derived from MDM2 and p53 ([1]; ITC): 28-40 fold
- n ([1]; 20° C.): 0.84 ± 0.01
- TΔS ([1]; ITC, 20° C., pH 7.0): -10.63 kcal/mol
- ΔG ([1]; ITC, 20° C., pH 7.0): -8.60 kcal/mol
- ΔH ([1]; ITC, 20° C., pH 7.0): -19.22 ± 0.05 kcal/mol

Compound: TRQVTQASSFTWRVPG (GTRQVTQASSFTWRVPG; Human herpesvirus 8) [vif2, peptide corresponding to amino acids 220-236 of KSHV vIRF4]
- USP8 DUB activity [5]: can not inhibit
- HAUSP DUB activity, comparative kinetic analysis [6]: completely suppressed
- HAUSP DUB activity against ubiquitinated MDM2 [8]: efficiently blocked
- HAUSP levels [9]: Neither vif1 nor vif2 peptide treatment altered
